These results are taken from patent US7265246B2, “Indane derivates as muscarinic receptor agonists” (Eli Lilly and Company, priority 2003, dated 2007).

Structures are written as SMILES. Where two headings read alike, the source gives them in different places.

The subject of this experiment is Male Sprague-Dawley rats. The following applies: s.c. immediately after the sampling phase, six-hour delay.

`Nc1c2c(nc3ccccc13)CCCC2` [Tacrine, tacrine]: the “retention in the eight arm radial maze” value was “not” (3 mg/kg) and “significantly improved retention” (10 mg/kg).
